How the values were obtained:
Assay in all cases: MIC, broth microdilution (CLSI), substance alone or ATB combined with compound at 4 or 8 μg/mL
KPN 6299 = format: cell-based, K. pneumoniae; conditions: compound @4 μg/ml
In short: (§1)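 Each strain received 5·10^5 CFU/mL of log-phase cells in ca-MHB over DMSO-spotted compound or compound-antibiotic combinations. After 16-20 h at 35° C, growth was scored visually.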

KPN UFR42 = format: cell-based, K. pneumoniae; conditions: KPN UFR42; for MIC ATB combined with compound: compound @4 μg/ml
In short: as §1

KPN BAA-1898 = format: cell-based, K. pneumoniae; conditions: KPN BAA-1898; for MIC ATB combined with compound: compound @4 μg/ml
In short: as §1

PAE UFR48 = format: cell-based, P. aeruginosa; conditions: PAE UFR48; for MIC ATB combined with compound: compound @4 μg/ml
In short: as §1

PAE 105250 = format: cell-based, P. aeruginosa; conditions: PAE 105250; for MIC ATB combined with compound: compound @4 μg/ml
In short: as §1

PAE UFR90 = format: cell-based, P. aeruginosa; conditions: PAE UFR90; for MIC ATB combined with compound: compound @4 μg/ml
In short: as §1

ECL P99 = format: cell-based, E. cloacae; conditions: ECL P99; for MIC ATB combined with compound: compound @4 μg/ml
In short: as §1

SPN 49619 = format: cell-based, S. pneumoniae; conditions: SPN 49619; for MIC ATB combined with compound: compound @4 μg/ml
In short: as §1

ECO 190317 = format: cell-based, E. coli; conditions: ECO 190317; for MIC ATB combined with compound: compound @4 μg/ml
In short: as §1

ECO UFR39 = format: cell-based, E. coli; conditions: ECO UFR39; for MIC ATB combined with compound: compound @4 μg/ml
In short: as §1

SAU 29213 = format: cell-based, S. aureus; conditions: for MIC ATB combined with compound: compound @4 μg/ml, SAU 29213
In short: as §1

With `NC[C@@H]1CC(=NOCC(N)=O)[C@@H]2CN1C(=O)N2OS(=O)(=O)[O-].O=C(O)C(F)(F)F.[Na+]` [Example 4, 2,2,2-trifluroacetate and sodium [(2S,5S)-4-(2-amino-2-oxo-ethoxy)imino-2-(azaniumylmethyl)-7-oxo-1,6-diazabicyclo[3.2.1]octan-6-yl] sulfate] the “MIC ATB combined with compound” value (KPN 6299; ATB ATM) was 0.063 µg/mL, the “MIC ATB combined with compound” value (KPN 6299; ATB FEP) was 0.125 µg/mL and the “MIC ATB combined with compound” value (KPN 6299; ATB FOS) was 64 µg/mL. The “MIC ATB combined with compound” value (KPN 6299; ATB MEM) was 0.25 µg/mL, the “MIC ATB combined with compound” value (KPN 6299; ATB PIP) was 4 µg/mL and the “MIC ATB combined with compound” value (KPN UFR42; ATB ATM) was 1 µg/mL. The “MIC ATB combined with compound” value (KPN UFR42; ATB FEP) was over 32 µg/mL, the “MIC ATB combined with compound” value (KPN UFR42; ATB FOS) was 32 µg/mL and the “MIC ATB combined with compound” value (KPN UFR42; ATB MEM) was over 32 µg/mL. The “MIC ATB combined with compound” value (KPN UFR42; ATB PIP) was over 32 µg/mL, the MIC (KPN UFR42; substance alone) was over 32 µg/mL and the “MIC ATB combined with compound” value (KPN BAA-1898; ATB ATM) was 8 µg/mL. For the same compound, the “MIC ATB combined with compound” value (KPN BAA-1898; ATB FEP) was 0.5 µg/mL, the “MIC ATB combined with compound” value (KPN BAA-1898; ATB FOS) was 32 µg/mL and the “MIC ATB combined with compound” value (KPN BAA-1898; ATB MEM) was 0.5 µg/mL. The “MIC ATB combined with compound” value (KPN BAA-1898; ATB PIP) was over 32 µg/mL, the MIC (KPN BAA-1898; substance alone) was over 32 µg/mL and the “MIC ATB combined with compound” value (PAE UFR48; ATB ATM) was under 0.031 µg/mL. The “MIC ATB combined with compound” value (PAE UFR48; ATB FEP) was under 0.031 µg/mL, the “MIC ATB combined with compound” value (PAE UFR48; ATB FOS) was under 0.125 µg/mL and the “MIC ATB combined with compound” value (PAE UFR48; ATB MEM) was under 0.031 µg/mL. For the same compound, the “MIC ATB combined with compound” value (PAE UFR48; ATB PIP) was under 0.031 µg/mL, the MIC (PAE UFR48; substance alone) was 4 µg/mL and the “MIC ATB combined with compound” value (PAE 105250; ATB ATM) was under 0.031 µg/mL. The “MIC ATB combined with compound” value (PAE 105250; ATB FEP) was “<=0.031 μg/mL”, the “MIC ATB combined with compound” value (PAE 105250; ATB FOS) was 8 µg/mL and the “MIC ATB combined with compound” value (PAE 105250; ATB MEM) was under 0.031 µg/mL. The “MIC ATB combined with compound” value (PAE 105250; ATB PIP) was “<=0.031 μg/mL”, the MIC (PAE 105250; substance alone) was 32 µg/mL and the “MIC ATB combined with compound” value (PAE UFR90; ATB ATM) was under 0.031 µg/mL. For the same compound, the “MIC ATB combined with compound” value (PAE UFR90; ATB FEP) was under 0.031 µg/mL, the “MIC ATB combined with compound” value (PAE UFR90; ATB FOS) was under 0.125 µg/mL and the “MIC ATB combined with compound” value (PAE UFR90; ATB MEM) was under 0.031 µg/mL. For the same compound, the “MIC ATB combined with compound” value (PAE UFR90; ATB PIP) was under 0.031 µg/mL, the MIC (PAE UFR90; substance alone) was 2 µg/mL and the “MIC ATB combined with compound” value (ECL P99; ATB ATM) was under 0.031 µg/mL. The “MIC ATB combined with compound” value (ECL P99; ATB FEP) was under 0.031 µg/mL, the “MIC ATB combined with compound” value (ECL P99; ATB FOS) was under 0.125 µg/mL and the “MIC ATB combined with compound” value (ECL P99; ATB MEM) was under 0.031 µg/mL. For the same compound, the “MIC ATB combined with compound” value (ECL P99; ATB PIP) was “<=0.031 μg/mL”, the MIC (ECL P99; substance alone) was 0.063 µg/mL and the “MIC ATB combined with compound” value (SPN 49619; ATB ATM) was over 32 µg/mL. The “MIC ATB combined with compound” value (SPN 49619; ATB FEP) was 0.063 µg/mL, the “MIC ATB combined with compound” value (SPN 49619; ATB FOS) was 32 µg/mL and the “MIC ATB combined with compound” value (SPN 49619; ATB MEM) was 0.063 µg/mL. For the same compound, the “MIC ATB combined with compound” value (SPN 49619; ATB PIP) was 0.5 µg/mL, the MIC (SPN 49619; substance alone) was 32 µg/mL and the “MIC ATB combined with compound” value (ECO 190317; ATB ATM) was under 0.031 µg/mL. For the same compound, the “MIC ATB combined with compound” value (ECO 190317; ATB FEP) was under 0.031 µg/mL, the “MIC ATB combined with compound” value (ECO 190317; ATB FOS) was under 0.125 µg/mL and the “MIC ATB combined with compound” value (ECO 190317; ATB MEM) was under 0.031 µg/mL. The “MIC ATB combined with compound” value (ECO 190317; ATB PIP) was under 0.031 µg/mL, the MIC (ECO 190317; substance alone) was 0.25 µg/mL and the “MIC ATB combined with compound” value (ECO UFR39; ATB ATM) was under 0.031 µg/mL. For the same compound, the “MIC ATB combined with compound” value (ECO UFR39; ATB FEP) was under 0.031 µg/mL, the “MIC ATB combined with compound” value (ECO UFR39; ATB FOS) was under 0.125 µg/mL and the “MIC ATB combined with compound” value (ECO UFR39; ATB MEM) was under 0.031 µg/mL. The “MIC ATB combined with compound” value (ECO UFR39; ATB PIP) was 0.063 µg/mL, the MIC (ECO UFR39; substance alone) was 0.25 µg/mL and the “MIC ATB combined with compound” value (SAU 29213; ATB ATM) was over 32 µg/mL. For the same compound, the “MIC ATB combined with compound” value (SAU 29213; ATB FEP) was 4 µg/mL, the “MIC ATB combined with compound” value (SAU 29213; ATB FOS) was 2 µg/mL and the “MIC ATB combined with compound” value (SAU 29213; ATB MEM) was 0.125 µg/mL. For the same compound, the “MIC ATB combined with compound” value (SAU 29213; ATB PIP) was 4 µg/mL and the MIC (SAU 29213; substance alone, SAU 29213 (MSSA 29213)) was over 32 µg/mL.
